The values below come from US8729082B2, “Substituted imidazoquinoxalines” (Bayer Intellectual Property GmbH, priority 2009, dated 2014).

pIC50: −log10 of the molar value.

This experiment has as its target T1, human kinase Mps-1 (Homo sapiens, UniProt P33981).
T1 construct: N-terminally GST-tagged human full length recombinant Mps-1 kinase; purchased Invitrogen, Karslruhe, Germany PV4071
T1 sequence (P33981 1-857): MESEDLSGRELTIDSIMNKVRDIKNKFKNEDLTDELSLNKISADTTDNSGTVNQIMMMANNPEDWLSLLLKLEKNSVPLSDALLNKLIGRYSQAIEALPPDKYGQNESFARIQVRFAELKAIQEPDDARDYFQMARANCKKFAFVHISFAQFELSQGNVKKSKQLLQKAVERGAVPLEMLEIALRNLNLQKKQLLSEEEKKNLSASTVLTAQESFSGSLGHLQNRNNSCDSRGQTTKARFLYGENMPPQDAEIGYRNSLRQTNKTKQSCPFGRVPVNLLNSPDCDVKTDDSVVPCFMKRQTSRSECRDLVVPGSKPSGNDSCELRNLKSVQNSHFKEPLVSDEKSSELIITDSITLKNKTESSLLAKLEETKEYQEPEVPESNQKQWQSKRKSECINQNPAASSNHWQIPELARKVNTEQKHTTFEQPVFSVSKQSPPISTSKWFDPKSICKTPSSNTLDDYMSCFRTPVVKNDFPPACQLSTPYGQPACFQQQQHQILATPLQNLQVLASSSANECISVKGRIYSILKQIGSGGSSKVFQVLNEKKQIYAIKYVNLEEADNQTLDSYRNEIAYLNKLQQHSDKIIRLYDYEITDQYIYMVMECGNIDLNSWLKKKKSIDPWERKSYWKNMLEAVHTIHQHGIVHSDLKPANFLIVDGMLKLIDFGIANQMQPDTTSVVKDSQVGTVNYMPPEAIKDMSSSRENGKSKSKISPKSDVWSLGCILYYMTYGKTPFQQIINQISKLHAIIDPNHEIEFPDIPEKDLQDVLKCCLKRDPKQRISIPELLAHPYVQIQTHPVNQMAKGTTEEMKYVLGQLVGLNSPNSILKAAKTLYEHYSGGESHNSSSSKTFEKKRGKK
The experiment is described as follows: Mps-1 kinase assay (HTRF). It counts as biochemical. The conditions noted are these: lowATP; mean; read-out: Mps1 lowATP mean IC50. The gist of the method:
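HTRF readout: EDTA-stopped reactions incubated 1 h with europium anti-phospho(Ser/Thr) antibody and streptavidin-XLent, emission ratio 665/620 nm after 350 nm excitation. Kinase step: compound pre-bound 15 min to ~1 nM GST-Mps-1, then 60 min at 22 °C with ATP and biotin-peptide substrate; inhibition scaled between no-inhibitor (0%) and no-enzyme (100%) controls.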
For orientation: pIC50 means −log10 of the IC50, conventionally taken in molar units. In the case of `Cc1cc2nc(NCCC(C)C)c3ncc(-c4ccc(C(=O)NC5CC5)cc4)n3c2cc1C` [Example 2-145, N-cyclopropyl-4-{7,8-dimethyl-4-[(3-methylbutyl)amino]imidazo[1,2-a]quinoxalin-1-yl}benzamide], the pIC50 was 8.25.
On to `Cc1cc2nc(NCCCCO)c3ncc(-c4ccc(C(=O)NC5CC5)cc4)n3c2cc1C` [Example 2-146, N-cyclopropyl-4-{4-[(4-hydroxybutyl)amino]-7,8-dimethylimidazo[1,2-a]quinoxalin-1-yl}benzamide], for which the pIC50 is 8.55.
For the compound `CCNc1nc2cc(C)c(C)cc2n2c(-c3ccc(C(=O)NC4CC4)cc3)cnc12` [Example 2-147, N-cyclopropyl-4-[4-(ethylamino)-7,8-dimethylimidazo[1,2-a]quinoxalin-1-yl]benzamide], the pIC50 is 8.35.
The result for `Cc1cc2nc(NCCCO)c3ncc(-c4ccc(C(=O)NC5CC5)cc4)n3c2cc1C` [Example 2-148, N-cyclopropyl-4-{4-[(3-hydroxypropyl)amino]-7,8-dimethylimidazo[1,2-a]quinoxalin-1-yl}benzamide] reads 8.23.
The result for `CCCCNc1nc2cc(C)c(C)cc2n2c(-c3ccc(C(=O)NC4CC4)cc3)cnc12` [Example 2-149, 4-[4-(butylamino)-7,8-dimethylimidazo[1,2-a]quinoxalin-1-yl]-N-cyclopropylbenzamide] reads 8.54; that for `Cc1cc2nc(NCC3CC3)c3ncc(-c4ccc(C(=O)NC5CC5)cc4)n3c2cc1C` [Example 2-150, N-cyclopropyl-4-{4-[(cyclopropylmethyl)amino]-7,8-dimethylimidazo[1,2-a]quinoxalin-1-yl}benzamide], 8.58.
The result for `Cc1cc2nc(NCc3ccccn3)c3ncc(-c4ccc(C(=O)NC5CC5)cc4)n3c2cc1C` [Example 2-151, N-cyclopropyl-4-{7,8-dimethyl-4-[(pyridin-2-ylmethyl)amino]imidazo[1,2-a]quinoxalin-1-yl}benzamide] reads 7.71.
Consider `Cc1cc2nc(NCc3cccnc3)c3ncc(-c4ccc(C(=O)NC5CC5)cc4)n3c2cc1C` [Example 2-152, N-cyclopropyl-4-{7,8-dimethyl-4-[(pyridin-3-ylmethyl)amino]imidazo[1,2-a]quinoxalin-1-yl}benzamide], for which the pIC50 was 8.22.
Next, `Cc1cc2nc(NCc3ccco3)c3ncc(-c4ccc(C(=O)NC5CC5)cc4)n3c2cc1C` [Example 2-153, N-cyclopropyl-4-{4-[(furan-2-ylmethyl)amino]-7,8-dimethylimidazo[1,2-a]quinoxalin-1-yl}benzamide]: 8.28; `Cc1cc2nc(NCC(C)C)c3ncc(-c4ccc(C(=O)NC5CC5)cc4)n3c2cc1C` [Example 2-154, N-cyclopropyl-4-{7,8-dimethyl-4-[(2-methylpropyl)amino]imidazo[1,2-a]quinoxalin-1-yl}benzamide]: 8.65.
The result for `COCCCNc1nc2cc(C)c(C)cc2n2c(-c3ccc(C(=O)NC4CC4)cc3)cnc12` [Example 2-155, N-cyclopropyl-4-{4-[(3-methoxypropyl)amino]-7,8-dimethylimidazo[1,2-a]quinoxalin-1-yl}benzamide] reads 8.11; that for `Cc1cc2nc(NCc3ccn(C)n3)c3ncc(-c4ccc(C(=O)NC5CC5)cc4)n3c2cc1C` [Example 2-156, N-cyclopropyl-4-(7,8-dimethyl-4-{[(1-methyl-1H-pyrazol-3-yl)methyl]amino}imidazo[1,2-a]quinoxalin-1-yl)benzamide], 8.07; that for `Cc1cc2nc(NCc3cnn(C)c3)c3ncc(-c4ccc(C(=O)NC5CC5)cc4)n3c2cc1C` [Example 2-157, N-cyclopropyl-4-(7,8-dimethyl-4-{[(1-methyl-1H-pyrazol-4-yl)methyl]amino}imidazo[1,2-a]quinoxalin-1-yl)benzamide], 8.26.
The result for `CCCNc1nc2cc(C)c(C)cc2n2c(-c3ccc(NC(=O)NC)cc3)cnc12` [Example 2-159, 1-{4-[7,8-dimethyl-4-(propylamino)imidazo[1,2-a]quinoxalin-1-yl]phenyl}-3-methylurea] reads 6.79; that for `CNC(=O)Nc1ccc(-c2cnc3c(NCCCN4CCOCC4)nc4cc(C)c(C)cc4n23)cc1` [Example 2-160, 1-[4-(7,8-dimethyl-4-{[3-(morpholin-4-yl)propyl]amino}imidazo[1,2-a]quinoxalin-1-yl)phenyl]-3-methylurea], 6.01.
For `CNC(=O)Nc1ccc(-c2cnc3c(NCc4cccc(F)c4)nc4cc(C)c(C)cc4n23)cc1` [Example 2-161, 1-(4-{4-[(3-fluorobenzyl)amino]-7,8-dimethylimidazo[1,2-a]quinoxalin-1-yl}phenyl)-3-methylurea], the pIC50 is 5.88.
Next, `CNC(=O)Nc1ccc(-c2cnc3c(NCCOC)nc4cc(C)c(C)cc4n23)cc1` [Example 2-162, 1-(4-{4-[(2-methoxyethyl)amino]-7,8-dimethylimidazo[1,2-a]quinoxalin-1-yl}phenyl)-3-methylurea]: 6.38; `CNC(=O)Nc1ccc(-c2cnc3c(NCc4ccccc4F)nc4cc(C)c(C)cc4n23)cc1` [Example 2-163, 1-(4-{4-[(2-fluorobenzyl)amino]-7,8-dimethylimidazo[1,2-a]quinoxalin-1-yl}phenyl)-3-methylurea]: 5.83; `CNC(=O)Nc1ccc(-c2cnc3c(NCc4ccc(F)cc4)nc4cc(C)c(C)cc4n23)cc1` [Example 2-164, 1-(4-{4-[(4-fluorobenzyl)amino]-7,8-dimethylimidazo[1,2-a]quinoxalin-1-yl}phenyl)-3-methylurea]: 6.38.
Next, `CNC(=O)Nc1ccc(-c2cnc3c(NCCCCO)nc4cc(C)c(C)cc4n23)cc1` [Example 2-165, 1-(4-{4-[(4-hydroxybutyl)amino]-7,8-dimethylimidazo[1,2-a]quinoxalin-1-yl}phenyl)-3-methylurea]: 6.58; `CNC(=O)Nc1ccc(-c2cnc3c(NCc4ccccc4)nc4cc(C)c(C)cc4n23)cc1` [Example 2-166, 1-{4-[4-(benzylamino)-7,8-dimethylimidazo[1,2-a]quinoxalin-1-yl]phenyl}-3-methylurea]: 6.22.
The result for `CNC(=O)Nc1ccc(-c2cnc3c(NCc4cccs4)nc4cc(C)c(C)cc4n23)cc1` [Example 2-167, 1-(4-{7,8-dimethyl-4-[(thiophen-2-ylmethyl)amino]imidazo[1,2-a]quinoxalin-1-yl}phenyl)-3-methylurea] reads 6.33.
`CCNc1nc2cc(C)c(C)cc2n2c(-c3ccc(NC(=O)NC)cc3)cnc12` [Example 2-168, 1-{4-[4-(ethylamino)-7,8-dimethylimidazo[1,2-a]quinoxalin-1-yl]phenyl}-3-methylurea]: the pIC50 is 6.87.
As to `CNC(=O)Nc1ccc(-c2cnc3c(NCCCn4ccnc4)nc4cc(C)c(C)cc4n23)cc1` [Example 2-169, 1-[4-(4-{[3-(1H-imidazol-1-yl)propyl]amino}-7,8-dimethylimidazo[1,2-a]quinoxalin-1-yl)phenyl]-3-methylurea], the pIC50 was 6.56.
On to `CNC(=O)Nc1ccc(-c2cnc3c(NCC4CC4)nc4cc(C)c(C)cc4n23)cc1` [Example 2-170, 1-(4-{4-[(cyclopropylmethyl)amino]-7,8-dimethylimidazo[1,2-a]quinoxalin-1-yl}phenyl)-3-methylurea], for which the pIC50 was 6.51.
Next, `CNC(=O)Nc1ccc(-c2cnc3c(NCc4cccnc4)nc4cc(C)c(C)cc4n23)cc1` [Example 2-171, 1-(4-{7,8-dimethyl-4-[(pyridin-3-ylmethyl)amino]imidazo[1,2-a]quinoxalin-1-yl}phenyl)-3-methylurea]: 6.55.
The result for `CNC(=O)Nc1ccc(-c2cnc3c(NCc4ccncc4)nc4cc(C)c(C)cc4n23)cc1` [Example 2-172, 1-(4-{7,8-dimethyl-4-[(pyridin-4-ylmethyl)amino]imidazo[1,2-a]quinoxalin-1-yl}phenyl)-3-methylurea] reads 6.58; that for `CNC(=O)Nc1ccc(-c2cnc3c(NCC(C)C)nc4cc(C)c(C)cc4n23)cc1` [Example 2-173, 1-(4-{7,8-dimethyl-4-[(2-methylpropyl)amino]imidazo[1,2-a]quinoxalin-1-yl}phenyl)-3-methylurea], 6.68; that for `CNC(=O)Nc1ccc(-c2cnc3c(NCCC(N)=O)nc4cc(C)c(C)cc4n23)cc1` [Example 2-174, N^3-(7,8-dimethyl-1-{4-[(methylcarbamoyl)amino]phenyl}imidazo[1,2-a]quinoxalin-4-yl)-beta-alaninamide], 6.11.
